Numbers after ± are expanded uncertainties.
Assays:
[1] = wn = mass fraction of the nth substance listed; details: 101 kPa, Liquid, w2 = 0.1668; for mass density: Vibrating tube method; for thermal conductivity: transient hot wire; for viscosity: Cone and plate viscometry; for electrical conductivity: Direct current cell with electrodes
[2] = molar heat capacity at constant pressure; wn = mass fraction of the nth substance listed; details: 101 kPa, Liquid, Small sample (50 mg) DSC, w2 = 0.1668
[3] = molar heat capacity at constant pressure; details: 101.33 kPa, Liquid, Small sample (50 mg) DSC
[4] = 101.33 kPa, Liquid; for thermal conductivity: transient hot wire; for mass density: Vibrating tube method; for viscosity: Cone and plate viscometry; for electrical conductivity: Direct current cell with electrodes

CCCC(=O)[O-].CCCCCCCCCCCCCC[P+](CCCCCC)(CCCCCC)CCCCCC [trihexyl(tetradecyl)phosphonium butyrate] + O
Details	electrical conductivity [S/m]	mass density [kg/m3]	molar heat capacity at constant pressure [J/K/mol]	thermal conductivity [W/m/K]	viscosity [mPa·s]
[1], 298.15 K	–	907.8 ± 1.9	–	0.189 ± 0.01	–
[1], 298.2 K	–	–	–	–	61.46 ± 3.8
[1], 302.4 K	0.11 ± 0.0049	–	–	–	–
[1], 303.15 K	–	904.6 ± 1.9	–	–	–
[1], 303.2 K	–	–	–	–	48.17 ± 3
[1], 303.9 K	0.118 ± 0.0051	–	–	–	–
[1], 307.87 K	–	–	–	0.188 ± 0.01	–
[1], 308.2 K	–	–	–	–	38.54 ± 2.4
[1], 308.4 K	0.14 ± 0.006	–	–	–	–
[1], 313.15 K	–	898.3 ± 1.9	–	–	–
[1], 313.2 K	0.168 ± 0.0072	–	–	–	31.4 ± 1.9
[1], 317.99 K	–	–	–	0.1859 ± 0.011	–
[1], 318.2 K	–	–	–	–	25.96 ± 1.6
[1], 318.8 K	0.205 ± 0.0086	–	–	–	–
[1], 323.15 K	–	891.9 ± 1.9	–	–	–
[1], 323.2 K	0.235 ± 0.0099	–	–	–	21.94 ± 1.3
[1], 327.77 K	–	–	–	0.1848 ± 0.011	–
[1], 328.2 K	–	–	–	–	18.8 ± 1.1
[1], 328.4 K	0.277 ± 0.012	–	–	–	–
[1], 333.15 K	–	885 ± 1.8	–	–	–
[1], 333.2 K	–	–	–	–	16.05 ± 0.98
[1], 333.4 K	0.322 ± 0.013	–	–	–	–
[1], 338.18 K	–	–	–	0.1828 ± 0.011	–
[1], 338.2 K	–	–	–	–	13.85 ± 0.85
[1], 338.8 K	0.38 ± 0.016	–	–	–	–
[1], 343.15 K	–	877.8 ± 1.8	–	–	–
[1], 343.2 K	0.423 ± 0.018	–	–	–	11.94 ± 0.73
[1], 347.9 K	–	–	–	0.1818 ± 0.01	–
[1], 348.2 K	–	–	–	–	10.37 ± 0.63
[1], 349.7 K	0.499 ± 0.021	–	–	–	–
[1], 353.15 K	–	870.5 ± 1.8	–	–	–
[1], 353.2 K	–	–	–	–	9.056 ± 0.55
[1], 358.2 K	–	–	–	0.1808 ± 0.011	8.136 ± 0.5
[1], 363.15 K	–	863.9 ± 1.8	–	–	–
[1], 363.2 K	–	–	–	–	7.26 ± 0.44
[1], 368.2 K	–	–	–	–	7.063 ± 0.43
[2], 298.15 K	–	–	316.94 ± 19	–	–
[2], 303.15 K	–	–	319.46 ± 20	–	–
[2], 308.15 K	–	–	321.6 ± 20	–	–
[2], 313.15 K	–	–	324.22 ± 20	–	–
[2], 318.15 K	–	–	327.2 ± 20	–	–
[2], 323.15 K	–	–	330.19 ± 20	–	–
[2], 328.15 K	–	–	333.45 ± 21	–	–
[2], 333.15 K	–	–	336.44 ± 21	–	–
[2], 338.15 K	–	–	340.64 ± 21	–	–
[2], 343.15 K	–	–	344.65 ± 21	–	–
[2], 348.15 K	–	–	348.29 ± 21	–	–
[2], 353.15 K	–	–	351.74 ± 22	–	–
[2], 358.15 K	–	–	356.22 ± 22	–	–
[2], 363.15 K	–	–	360.42 ± 22	–	–

CCCCCC(=O)[O-].CCCCCCCCCCCCCC[P+](CCCCCC)(CCCCCC)CCCCCC [trihexyl(tetradecyl)phosphonium hexanoate]
Details	electrical conductivity [S/m]	mass density [kg/m3]	molar heat capacity at constant pressure [J/K/mol]	thermal conductivity [W/m/K]	viscosity [mPa·s]
[3], 293.15 K	–	–	1133.3 ± 70	–	–
[3], 298.15 K	–	–	1141.7 ± 70	–	–
[3], 303.15 K	–	–	1149.5 ± 71	–	–
[3], 308.15 K	–	–	1156.7 ± 71	–	–
[3], 313.15 K	–	–	1163.9 ± 72	–	–
[3], 318.15 K	–	–	1169.3 ± 72	–	–
[3], 323.15 K	–	–	1176.4 ± 72	–	–
[3], 328.15 K	–	–	1182.4 ± 73	–	–
[3], 333.15 K	–	–	1189 ± 73	–	–
[3], 338.15 K	–	–	1196.8 ± 74	–	–
[3], 343.15 K	–	–	1204 ± 74	–	–
[3], 348.15 K	–	–	1211.2 ± 75	–	–
[3], 353.15 K	–	–	1219 ± 75	–	–
[3], 358.15 K	–	–	1227.4 ± 75	–	–
[3], 363.15 K	–	–	1235.2 ± 76	–	–
[4], 278.22 K	–	–	–	0.1591 ± 0.0095	–
[4], 287.73 K	–	–	–	0.1574 ± 0.01	–
[4], 293.15 K	–	888.5 ± 1.9	–	–	–
[4], 293.2 K	–	–	–	–	435.1 ± 32
[4], 298.15 K	–	885.5 ± 1.9	–	–	–
[4], 298.2 K	–	–	–	–	343.1 ± 24
[4], 298.98 K	–	–	–	0.156 ± 0.0096	–
[4], 299.6 K	0.0033 ± 0.00018	–	–	–	–
[4], 303.15 K	–	882.3 ± 1.9	–	–	–
[4], 303.2 K	–	–	–	–	260.7 ± 18
[4], 303.8 K	0.00454 ± 0.00021	–	–	–	–
[4], 307.3 K	–	–	–	0.1547 ± 0.01	–
[4], 308.1 K	0.00563 ± 0.00026	–	–	–	–
[4], 308.2 K	–	–	–	–	200 ± 13
[4], 313.15 K	–	876 ± 1.9	–	–	–
[4], 313.2 K	–	–	–	–	155.8 ± 10
[4], 313.9 K	0.00765 ± 0.00034	–	–	–	–
[4], 318.15 K	–	–	–	0.1533 ± 0.01	–
[4], 318.2 K	–	–	–	–	123.4 ± 7.9
[4], 318.4 K	0.00943 ± 0.00041	–	–	–	–
[4], 323.15 K	–	869.7 ± 1.9	–	–	–
[4], 323.2 K	–	–	–	–	99.18 ± 6.2
[4], 323.6 K	0.0118 ± 0.00052	–	–	–	–
[4], 328 K	0.0144 ± 0.00063	–	–	–	–
[4], 328.2 K	–	–	–	–	80.79 ± 5
[4], 329.17 K	–	–	–	0.151 ± 0.011	–
[4], 333.15 K	–	863.6 ± 1.8	–	–	–
[4], 333.2 K	–	–	–	–	66.6 ± 4.1
[4], 333.6 K	0.018 ± 0.00078	–	–	–	–
[4], 336.96 K	–	–	–	0.15 ± 0.011	–
[4], 338.2 K	–	–	–	–	55.39 ± 3.4
[4], 338.9 K	0.0223 ± 0.001	–	–	–	–
[4], 343 K	0.026 ± 0.0011	–	–	–	–
[4], 343.15 K	–	857.5 ± 1.8	–	–	–
[4], 343.2 K	–	–	–	–	46.46 ± 2.9
[4], 347.73 K	–	–	–	0.1497 ± 0.011	–
[4], 348.2 K	–	–	–	–	39.52 ± 2.4
[4], 349.3 K	0.0325 ± 0.0014	–	–	–	–
[4], 353.15 K	–	851.5 ± 1.8	–	–	–
[4], 353.2 K	–	–	–	–	33.7 ± 2.1
[4], 357.74 K	–	–	–	0.1476 ± 0.01	–
[4], 358.2 K	–	–	–	–	28.97 ± 1.8
[4], 363.15 K	–	845.4 ± 1.8	–	–	–
[4], 363.2 K	–	–	–	–	25.05 ± 1.5
[4], 368.2 K	–	–	–	–	21.82 ± 1.3

Reference: the NIST ThermoML archive (doi:10.1016/j.jct.2018.02.013)
